Assay results reported in US7897574B2, “Pharmaceutical composition for treating haemorrhagic shock and its consecutive symptoms” (Ikaria Development Subsidiary Two LLC, priority 2005, dated 2011).
Each block holds one substance with its values, some of them ahead of it.

How the values were obtained:
[1] = tested on: human umbilical vein endothelial cells (HUVEC); test: Inhibition of the release of interleukin-6 from endothelial cells; format: cell-based; details: 4 hrs
Protocol: In addition we have identified a specific assay for the determination of the claimed activity of the peptides, which consists of measurement of the inhibition of the release of interleukin-6 from endothelial cells. […] This assay is therefore also part of the invention.
96-well cell culture plates were coated with 1% gelatine. Into each well, approx. 23,000 human umbilical vein endothelial cells (HUVEC) in 200 μl of medium were pipetted. The HUVECs were taken from passage 4 form a pool of four different donors. The medium used for dilution was standard medium with 10% FCS, ECGS in Iscove's modified Dulbecco medium (Petzelbauer et al., J Immunol. 151:5062-5072, 1993). Within approx. 18 hrs at 37° C. in an incubator, a confluent cell monolayer is formed. The supernatant was removed and replaced with medium containing either NDSK-II alone or NDSK-II plus peptide Bβ15Δ([…]).
The total final volume was 200 μl. After 4 hrs of incubation at 37° C. under 5% CO2, the cell culture supernatant was again removed and centrifuged for 10 min at 4° C. at 3000 U/min. The concentration of interleukin-6 (IL-6) was measured using a commercial assay (IL-6 Quantikine Immonuassay (R&D Sytems; Catalog#: D6050; Lot: 231361). Calibration was done according to the standard protocol supplied by the assay manufacturer with various dilutions of recombinant IL-6 and medium. Readings of the optical density were taken at a wavelength of 450 nm with a reference wavelength of 550 nm.

[2] = tested on: Domestic male landrace pigs; test: Hemorrhagic shock in domestic pigs; format: in vivo, pig
Protocol: Domestic male landrace pigs weighing 20-35 kg were fed a standard diet and received water ad libitum. All procedures were performed in concurrence with the AAALAC guidelines and according to the Guide for the Care of Laboratory Animals (Department of Health and Human Services, National Institutes of Health, Publication Nr. 86-23). Pigs were premedicated with azaperon (4 mg/kg). The ear vein was cannulated and the anesthetic propofol was applied. The animals were fully instrumented and equlibrated for 1 hr in order to recieve a stable baseline. Subsequently, the animals (n=16) were exsanguinated until a mean arterial pressure of 40 mm Hg was achieved. They were kept at this level constituting a hemorrhagic shock for 1 hr. After this time the lost blood volume was resubstituted with shed blood and salt solutions (cristalloids). In addition the animals received a bolus dose of the peptide Bβ15-42 (n=8) or a random sequence peptide (n=8) in a dose of […] each as a single intravenous bolus. During the ensuing reperfusion period over the duration of 5 hrs, Horrowitz index (measuring blood oxigenation), PEEP (positive end-expiratory pressure in mm Hg) and cardiac ejection volume were determined at various timepoints.
In the following tables the following timepoints were used:
• Timepoint 1: 1 hr before hemorrhagic shock • Timepoint 2: during hemorrhagic shock • Timepoint 3: 1 hr after the start of reperfusion • Timepoint 4: 3 hrs after the start of reperfusion • Timepoint 5: 5 hrs after the start of reperfusion

[3] = in vivo, ischemia/reperfusion; WO 02/48180; cited from earlier work
[4] = target: T1, recombinant human VE-cadherin FC fusion protein (Homo sapiens, UniProt P33151); test: ELISA: binding of FLAG-tagged peptide to coated VE-cadherin; details: VE-cadherin coated 8 nM/ml
T1 construct: purchased R&D Systems, Minneapolis
T1 sequence (P33151 with tags, fused parts or gaps limits assumed): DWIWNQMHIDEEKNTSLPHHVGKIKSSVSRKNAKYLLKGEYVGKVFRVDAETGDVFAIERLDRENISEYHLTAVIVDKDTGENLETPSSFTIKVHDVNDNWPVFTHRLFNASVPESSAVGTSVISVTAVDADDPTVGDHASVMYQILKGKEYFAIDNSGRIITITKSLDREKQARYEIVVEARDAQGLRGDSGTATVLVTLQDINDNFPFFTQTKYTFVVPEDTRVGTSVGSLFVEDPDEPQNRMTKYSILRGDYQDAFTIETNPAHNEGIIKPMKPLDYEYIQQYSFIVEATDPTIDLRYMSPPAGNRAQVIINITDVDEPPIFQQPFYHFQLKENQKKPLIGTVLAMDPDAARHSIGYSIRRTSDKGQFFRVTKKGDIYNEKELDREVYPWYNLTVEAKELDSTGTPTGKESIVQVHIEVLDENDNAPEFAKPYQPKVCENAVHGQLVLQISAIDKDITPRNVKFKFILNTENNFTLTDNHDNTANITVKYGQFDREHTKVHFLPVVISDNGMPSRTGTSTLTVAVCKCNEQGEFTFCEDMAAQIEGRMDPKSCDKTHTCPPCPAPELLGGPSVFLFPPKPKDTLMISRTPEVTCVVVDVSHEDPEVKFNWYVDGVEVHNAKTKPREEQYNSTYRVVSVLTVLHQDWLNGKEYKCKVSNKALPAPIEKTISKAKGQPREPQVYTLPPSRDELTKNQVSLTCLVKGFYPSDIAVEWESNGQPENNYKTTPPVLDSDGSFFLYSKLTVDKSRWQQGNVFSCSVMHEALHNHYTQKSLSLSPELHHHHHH
Source text: We have developed a modified ELISA working with the same principles described by others, but the purpose of the herein described ELISA is not to quantify fibrin degradation products, but to search for proteins, peptides or compounds which interfere with the binding of the Bbeta15-42 sequence and the VE-cadherin. […] Into this system one can introduce any other additional substance and measure if this substance inhibits VE-cadherin/Bbeta15-42 binding.
In detail, 96 well protein immobilizer plates (Exiqon, Vedbaek, DK) were coated with recombinant human VE-cadherin FC fusion protein (8 nM/ml; R&D Systems, Minneapolis) in PBS and were left overnight at 4° C. Plates were then washed and incubated with peptide Bβ15-42 ([…]) tagged with a FLAG-sequence (DYKDDDDK) at the C-terminus of the peptide or with a FLAG-tagged random peptide ([…]) at a concentration of 0-80 μMol/ml. After washing, bound FLAG-tagged peptide was detected by incubation with a peroxidase-labelled anti-FLAG antibody (Sigma, St. Louis, USA) and chromogenic substrate. Optical density was determined by an ELISA plate reader set at a wavelength of 450 nm. Data represent the mean of three independent experiments, each performed in triplicates.

[5] = Timepoint 1: 1 hr before hemorrhagic shock (before dosing)
[6] = Timepoint 2: during hemorrhagic shock (before dosing)
[7] = Timepoint 3: 1 hr after the start of reperfusion, 2.4 mh/kg single intravenous bolus
[8] = Timepoint 4: 3 hrs after the start of reperfusion, 2.4 mh/kg single intravenous bolus
[9] = Timepoint 5: 5 hrs after the start of reperfusion, 2.4 mh/kg single intravenous bolus

Substance: GHRPLDKKREEAPSLRPAPPPISGGGYR [peptide Bβ15-42, peptide matching amino acids 15-42 of the Bβ chain of human fibrin]
IL-6 concentration ([1]; 0.3 μg/ml NDSK-II + 10 μg/ml peptide): 15 ± 2 pg/mL
IL-6 concentration ([1]; 3 μg/ml NDSK-II + 10 μg/ml peptide): 12 ± 3(p < 0.05 cmpd with pg/ml
IL-6 concentration ([1]; 30 μg/ml NDSK-II + 10 μg/ml peptide): 13 ± 1(p < 0.05 cmpd with pg/ml
EV (cardiac ejection volume) [2, 5]: 44 ± 2 mL
Horrowitz Index (blood oxigenation) [2, 5]: 465 +/− 20
PEEP (positive end-expiratory pressure) [2, 5]: 4 +/− 0.1 mmHg
EV (cardiac ejection volume) [2, 6]: 6 ± 1 mL
Horrowitz Index (blood oxigenation) [2, 6]: 450 +/− 20
PEEP (positive end-expiratory pressure) [2, 6]: 4 +/− 0.1 mmHg
EV (cardiac ejection volume) [2, 7]: 31 ± 4 mL
Horrowitz Index (blood oxigenation) [2, 7]: 420 +/− 10
PEEP (positive end-expiratory pressure) [2, 7]: 4.1 +/− 0.2 mmHg
EV (cardiac ejection volume) [2, 8]: 32 ± 3 mL
Horrowitz Index (blood oxigenation) [2, 8]: 410 +/− 20
PEEP (positive end-expiratory pressure) [2, 8]: 4.2 +/− 0.3 mmHg
EV (cardiac ejection volume) [2, 9]: 37 ± 4 mL
Horrowitz Index (blood oxigenation) [2, 9]: 420 +/− 30
PEEP (positive end-expiratory pressure) [2, 9]: 4.3 +/− 0.2 mmHg
myocardial infarct size (in words) [3]: reduces myocardial infarct sizes

binding to VE-cadherin, optical density (450 nm), mean ([4]; FLAG-tagged peptide 0.23 μM/ml): 0.01
binding to VE-cadherin, optical density (450 nm), mean ([4]; FLAG-tagged peptide 0.7 μM/ml): 0.02
binding to VE-cadherin, optical density (450 nm), mean ([4]; FLAG-tagged peptide 2.3 μM/ml): 0.08
binding to VE-cadherin, optical density (450 nm), mean ([4]; FLAG-tagged peptide 7 μM/ml): 0.33
binding to VE-cadherin, optical density (450 nm), mean ([4]; FLAG-tagged peptide 14 μM/ml): 0.92
binding to VE-cadherin, optical density (450 nm), mean ([4]; FLAG-tagged peptide 21 μM/ml): 1.3
binding to VE-cadherin, optical density (450 nm), mean ([4]; FLAG-tagged peptide 35 μM/ml): 1.5
binding to VE-cadherin, optical density (450 nm), mean ([4]; FLAG-tagged peptide 46 μM/ml): 1.93
binding to VE-cadherin, optical density (450 nm), mean ([4]; FLAG-tagged peptide 70 μM/ml): 2.1
Substance: 15-42 FLAG: peptide Bβ15-42 (GHRPLDKKREEAPSLRPAPPPISGGGYR) tagged with a FLAG-sequence (DYKDDDDK) at the C-terminus (GHRPLDKKREEAPSLRPAPPPISGGGYRDYKDDDDK)
